Assay results reported in patent publication US8859572B2, “Sulfone substituted 2,3-dihydroimidazo [1,2-C] quinazoline derivatives useful for treating hyper-proliferative disorders and diseases with angiogenesis” (Bayer Intellectual Property GmbH, priority 2008, dated 2014).

Target: T1, PI3Kβ (recombinant truncated form (ΔN1-108) of the human p110β subunit of PI3K) (Homo sapiens, UniProt P42338)
T1 construct: His6 (N); made in house; host or cells: Spodoptera frugiperda Sf9 insect cells
Experiment: Solid-phase lipid kinase assay of PI3Kβ
Type: biochemical
Conditions: 7.5 ng protein/well, final 10 μM ATP, 2 h at rt
Procedure: To assess inhibition of PI3Kα by compounds, the Maxisorp™ plates were coated with 50 μL/well of a solution containing 50 μg/ml PtdIns and 50 μg/ml PtdSer dissolved in chloroform:ethanol (3:7). The plates were subsequently air-dried by incubation for at least 2 h in a fume hood. The reaction was set up by mixing 25 μL/well of assay buffer 2×(100 mM MOPSO/NaOH, 0.2 M NaCl, pH 7.0, 8 mM MgCl2, 2 mg/mL BSA (fatty acid-free)), and 7.5 ng/well PI3Kα in the lipid pre-coated plate. Test compounds at different concentrations (0.0, 0.003, 0.01 0.03, 0.1, 0.3, 1.0, 3.0 and 10 μM) were added in 2% DMSO. The reaction was initiated by adding 20 μL/well of ATP mix (final 10 μM ATP; 0.05 μCi/well [γ^33P]ATP). After incubation at rt for 2 h, the reaction was terminated by adding 50 μl/well stop solution (50 mM EDTA, pH 8.0). The plate was then washed twice with Tris-buffered saline (TBS, pH 7.4). MicroScint PS™ (PACKARD) scintillation mix was added at 100 μL/well, and radioactivity was counted using a TopCount™ (PACKARD) scintillation counter.
The inhibition percent at each concentration of compound was calculated, and IC50 values were determined from the inhibition of curve.
A recombinant truncated form (ΔN1-108) of the human p110β subunit of PI3K with an N-terminal His6-Tag was expressed in S. frugiperda 9 insect cells. Recombinant human PI3Kγ (full length human PI3K p110γ fused with a His6-tag at the C-terminus expressed in S. frugiperda 9 insect cells) was obtained from ALEXIS BIOCHEMICALS (#201-055-0010; San Diego, Calif.).
Kinase assays using recombinant truncated p110β or the full length p110γ were performed in a similar manner as described in the determination of IC50 values of compounds in the kinase assay of PI3Kα except that these isoforms were assayed using 7.5 ng and 25.0 ng of protein/well, respectively.

T1 sequence (P42338 109-1070): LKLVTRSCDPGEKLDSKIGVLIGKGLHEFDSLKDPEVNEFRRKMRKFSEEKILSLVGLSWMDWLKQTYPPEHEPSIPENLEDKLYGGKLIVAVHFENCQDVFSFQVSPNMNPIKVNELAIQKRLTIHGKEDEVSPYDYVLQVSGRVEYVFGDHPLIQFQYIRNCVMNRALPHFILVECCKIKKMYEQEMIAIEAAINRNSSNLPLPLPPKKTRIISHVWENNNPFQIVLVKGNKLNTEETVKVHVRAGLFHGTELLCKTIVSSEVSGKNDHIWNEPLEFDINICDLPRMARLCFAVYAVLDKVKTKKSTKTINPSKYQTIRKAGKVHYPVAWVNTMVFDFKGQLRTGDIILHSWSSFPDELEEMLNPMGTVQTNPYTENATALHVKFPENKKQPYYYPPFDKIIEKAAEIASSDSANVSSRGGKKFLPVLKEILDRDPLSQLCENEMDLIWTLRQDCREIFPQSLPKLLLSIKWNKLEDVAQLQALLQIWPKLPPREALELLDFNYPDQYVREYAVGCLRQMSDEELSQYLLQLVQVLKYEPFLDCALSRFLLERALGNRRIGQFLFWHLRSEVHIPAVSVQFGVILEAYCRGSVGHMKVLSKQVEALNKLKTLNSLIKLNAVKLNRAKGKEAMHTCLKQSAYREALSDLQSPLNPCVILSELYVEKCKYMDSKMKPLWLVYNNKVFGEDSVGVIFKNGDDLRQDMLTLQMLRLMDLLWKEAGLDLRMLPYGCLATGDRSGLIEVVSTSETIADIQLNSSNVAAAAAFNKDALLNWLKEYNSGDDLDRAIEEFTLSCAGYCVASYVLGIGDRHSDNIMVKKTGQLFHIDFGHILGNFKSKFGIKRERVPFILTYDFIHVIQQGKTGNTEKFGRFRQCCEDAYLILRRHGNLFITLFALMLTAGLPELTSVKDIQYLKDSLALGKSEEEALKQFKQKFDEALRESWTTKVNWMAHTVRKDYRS

| IC50 | SMILES |
| --- | --- |
| 100 to 3000 nM | Nc1ccc(C(=O)NC2=Nc3cc(OCCCS(=O)(=O)N4CCOCC4)ccc3C3=NCCN23)cn1 [Example 30, 6-amino-N-{8-[3-(morpholin-4-ylsulfonyl)propoxy]-2,3-dihydroimidazo[1,2-c]quinazolin-5-yl}nicotinamide] |
| < 100 nM | COc1c(OCCOCCNS(C)(=O)=O)ccc2c1N=C(NC(=O)c1cccnc1)N1CCN=C21 [Example 31, N-[7-methoxy-8-(2-{2-[(methylsulfonyl)amino]ethoxy}ethoxy)-2,3-dihydroimidazo[1,2-c]quinazolin-5-yl]nicotinamide] |
| < 100 nM | CCCS(=O)(=O)NCCOCCOc1ccc2c(c1OC)N=C(NC(=O)c1cccnc1)N1CCN=C21 [Example 32] |
| < 100 nM | COc1c(OCCOCCNS(=O)(=O)c2ccccc2)ccc2c1N=C(NC(=O)c1cccnc1)N1CCN=C21 [Example 33, N-[7-methoxy-8-(2-{2-[(phenylsulfonyl)amino]ethoxy}ethoxy)-2,3-dihydroimidazo[1,2-c]quinazolin-5-yl]nicotinamide] |
| < 100 nM | COc1c(OCCOCCNS(=O)(=O)c2ccc(C)cc2)ccc2c1N=C(NC(=O)c1cccnc1)N1CCN=C21 [Example 34, N-{7-methoxy-8-[2-(2-{[(4-methylphenyl)sulfonyl]amino}ethoxy)ethoxy]-2,3-dihydroimidazo[1,2-c]quinazolin-5-yl}nicotinamide] |
| < 100 nM | CCS(=O)(=O)NCCCOc1ccc2c(c1OC)N=C(NC(=O)c1cccnc1)N1CCN=C21 [Example 35, N-(8-[3-[(ethylsulfonyl)amino]propoxy]-7-methoxy-2,3-dihydroimidazo[1,2-c]quinazolin-5-yl)nicotinamide] |
| < 100 nM | CS(=O)(=O)c1ccc(COc2c(OCCCN3CCOCC3)ccc3c2N=C(NC(=O)c2cccnc2)N2CCN=C32)cc1 [Example 36, N-[7-{[4-(methylsulfonyl)benzyl]oxy}-8-(3-morpholin-4-ylpropoxy)-2,3-dihydroimidazo[1,2-c]quinazolin-5-yl]nicotinamide] |
| < 100 nM | CS(=O)(=O)Oc1c(OCCCN2CCOCC2)ccc2c1N=C(NC(=O)c1cccnc1)N1CCN=C21 [Example 37, 8-(3-morpholin-4-ylpropoxy)-5-[(pyridin-3-ylcarbonyl)amino]-2,3-dihydroimidazo[1,2-c]quinazolin-7-yl methanesulfonate] |
